# According to US20150336993A1, “MITOCHONDRIA-TARGETED THERANOSTIC AGENTS” (The Board of Trustees of the Leland Stanford Junior …, priority 2014, published 2015):
# Read-outs that look alike come from different tables or passages of the source.
# How the values were obtained:
# NIH 3T3 cells = assay: Cell proliferation assay in NIH 3T3 cells (direct cell counting); type: cell-based, mouse; settings: NIH 3T3 fibroblasts, 3000 cells/well, incubated 4 days, viable cells directly counted, read-out: IC50 (half inhibitory concentration) against NIH 3T3
# Method: (§1) To further confirm the relationship between cell uptake and antitumor activity, the half inhibitory concentrations (IC50) of these compounds against the U87MG cell line were measured. […] It should be noted that all these five compounds show minimum or even un-observable toxicity in the fibroblast cell line NIH 3T3 (IC50 all >100 μM, Table 1, FIG. 6), highlighting the treatment specificity of these mitochondrial targeted agents.
# (§2) Both U87MG and NIH 3T3 cell lines at a density of 3000 cells/well were incubated in 96-well plates overnight. The culture medium was replaced with 200 μL of culture medium in which the testing compound dispersed at various concentrations (0.5-200 μM). After incubation for 4 days, the viable cell numbers were checked and directly counted under microscopy (10×). A minimum of 1 mm×1 mm area was counted from each of at least three widely separated regions of cell culture. The cell proliferation rate was calculated by the following formula: cell proliferation rate (%)=(average cell number of sample wells/average cell number of control wells×100. The intact culture medium was evaluated as a control.
# U87MG cells [1] = assay: Cell proliferation assay in U87MG cells (direct cell counting); type: cell-based, human; settings: for IC50: 3000 cells/well, incubated 4 days, viable cells directly counted, read-out: IC50 (half inhibitory concentration) against U87MG
# Method: Apart from the imaging studies, we then investigated anti-tumor activities of all F16 related compounds by studying their antiproliferative effects in U87MG and MDA-MB-231 cell lines. After exposure to 5 or 10 μM of the compounds in the cancer cells for 4 days, the cell proliferative ratios to the control were measured (see FIG. 5). […] The different antiproliferative activities imply that the antitumor potency of the F16 related compounds is cell-dependent. Meanwhile, substituents in F16 and F16-TPP analogues played distinct roles, for instance, introduction of a fluorine atom in F16 barely influences activity of FF16 (P>0.05), while substitution of fluorine and methyl groups apparently impacts F16-TPP analogues in the U87MG cell line at a higher concentration of 10 μM.
# as §1, §2
# U87MG cells [2] = assay: Cell uptake and localization by fluorescence microscopy in U87MG cells; type: cell-based, human; settings: 1 hour incubation, fluorescence signal in cells/PBS buffer, n=9
# Method: The data was obtained by calculating by the following equation: Fluorescence signal in cell lines/Fluorescence signal in PBS buffer and normalized to F16 in the U87MG cell line. n=9. Data are presented as mean±SD.
# Tumor cell uptake of all F16 related compounds were studied by incubating two cancer cell lines (U87MG and MDA-MB-231) with the probes for 1 hour and then imaging was performed with a fluorescent microscope. Meanwhile, to investigate the localization of the F16 derivatives, after incubation with the probes, cells were co-stained with the commercially available dye Mitotrack, which is widely used for mitochondria staining. […] Under eGFP filter set (ξex 450/490 nm, λem 515/565 nm), no significant autofluorescence of the cells were observed, making it convenient to study the relative uptake of the probes directly by comparing their fluorescence signals.
# We then investigated the uptake of all the probes in U87MG and MDA-MB-231 cells at 1 hour incubation by quantitative analysis of fluorescent signals intensity of all F16 related compounds in the cells. The cellular uptake experiments were repeated nine times, and the relative cellular uptakes ability of different probes were calculated by comparing their percentage of cellular fluorescent signals and then normalized by that of F16 (FIG. 4). […]
"IC50 (U87MG cells [1]; Homo sapiens, U-87 MG, 96 h) [µM]",IC50 (U87MG cells [1]) [µM],Improvement of bioactivity relative to F16 (U87MG IC50) (U87MG cells [1]; fluorine substitution in F16) [fold],SMILES,"IC50 (NIH 3T3 cells; Mus musculus, NIH3T3, 96 h) [µM]","Relative uptake in U87MG cells, normalized to F16 (U87MG cells [2])",IC50 (NIH 3T3 cells) [µM]
36.5 ± 1.1,–,–,"C[n+]1ccc(/C=C/c2c[nH]c3ccccc23)cc1.[I-] [F16, (E)-4-(1H-indol-3-ylvinyl)-N-methylpyridinium iodide, reference compound]",~100,~1,–
–,28 ± 1.2,~1.3,"C[n+]1ccc(/C=C/c2c[nH]c3ccc(F)cc23)cc1.[I-] [FF16, (E)-4-(1H-5-fluro-indole-3-ylvinyl)-N-methylpyridinium iodide]",–,~1,~491
